Converted amounts (≈) assume the structure as drawn.
Assays:
Assay type in all cases: cell-based
HeLa = assay: Inhibition of cell growth, HeLa cells; details: three days at 37° C., microscope assessment; for IC50: Homo sapiens, 72 h, read-out: IC50 value (50% inhibition of cell growth)
Experimental: (§1) Aqueous sterile solutions of each substance to be tested are injected into 1 ml of the respective cell stock solution at concentration steps of 2-50 μg each time. Subsequently, the test chambers are developed together with a non-treated reference chamber for three days at 37° C. Assessment is performed using a microscope. Cell growth or cell decomposition (condition of cell membrane and cell nucleus) is compared to non-treated reference cells.

Hep2 = assay: Inhibition of cell growth, Hep2 cells; details: three days at 37° C., microscope assessment; for IC50: Homo sapiens, HEp-2, 72 h, read-out: IC50 value (50% inhibition of cell growth)
Experimental: as §1

Pleural carcinoma = assay: Inhibition of cell growth, pleural carcinoma cells; details: 72 h, three days at 37° C., microscope assessment, read-out: IC50 value (50% inhibition of cell growth)
Experimental: as §1

Peritoneal carcinoma = assay: Inhibition of cell growth, peritoneal carcinoma cells; details: 72 h, three days at 37° C., microscope assessment, read-out: IC50 value (50% inhibition of cell growth)
Experimental: as §1

[1] = test system: permanent cell cultures such as HeLa, Hep2 cells, of peritoneal carcinoma and pleural carcinoma cells; assay: Inhibition of cell growth, overall statement on the tumor cell cultures
Experimental: as §1

| Molecule | IC50 value (50% inhibition of cell growth) (HeLa) [µg/mL] | IC50 value (50% inhibition of cell growth) (Hep2) [µg/mL] | IC50 (HeLa) [µg/mL] | IC50 (Hep2) [µg/mL] | IC50 (Pleural carcinoma) [µg/mL] | IC50 (Peritoneal carcinoma) [µg/mL] | inhibition of cell growth / antitumor activity, result in words [1] |
| --- | --- | --- | --- | --- | --- | --- | --- |
| OC[C@@H](O)[C@@H](O)[C@H](O)c1nnc2ccccc2n1 [Compound h, 3-(D-arabino-tetritol-1-yl)-1,2,4-benzotriazine] | 150 | 150 |  |  |  |  |  |
| COC(=O)Cc1nnc2ccc(Cl)c(N)c2n1 [Compound d, 3-(methoxycarbonylmethyl)-5-amino-6-chlorobenzo-1,2,4-triazine] |  |  | 50 (≈ 198 µM) | 500 (≈ 1980 µM) | 500 (≈ 1980 µM) | 25 to 30 (≈ 98.9 to 119 µM) |  |
| OC[C@@H](O)[C@@H](O)[C@H](O)c1nnc2ccc(Cl)cc2n1 [Compound k, 3-(D-arabino-tetritol-1-yl)-6-chlorobenzo-1,2,4-triazine] | 250 |  |  |  |  |  |  |
| COC(=O)Cc1nnc2cccc(Cl)c2n1 [Compound c, 3-(methoxycarbonylmethyl)-5-chlorobenzo-1,2,4-triazine] |  |  | 8 to 16 (≈ 33.7 to 67.3 µM) | 16 (≈ 67.3 µM) |  | 12 (≈ 50.5 µM) | preferred activity |
| CCOC(=O)Cc1nnc2ccc(Br)cc2n1 [Compound g, 3-(ethoxycarbonylmethyl)-6-bromobenzo-1,2,4-triazine] |  |  | 8 to 16 (≈ 27 to 54 µM) | 8 to 16 (≈ 27 to 54 µM) |  | 35 (≈ 118 µM) | preferred activity |
| COC(=O)Cc1nnc2ccc(Cl)cc2n1 [Compound b, 3-(methoxycarbonylmethyl)-6-chlorobenzo-1,2,4-triazine] |  |  | 160 (≈ 673 µM) | 120 (≈ 505 µM) | 500 (≈ 2100 µM) | 150 (≈ 631 µM) |  |
| CC(C)NC(=O)Cc1nnc2ccccc2n1 [Compound l, 3-(isopropylaminocarbonylmethyl)-1,2,4-benzotriazine] |  |  |  |  |  |  | preferred activity |
| 3-(D-galacto-tetritol-1-yl)-1,2,4-benzotriazine [Compound i] | 400 |  |  |  |  |  |  |
